Measured values as given in paper PMC11727701 (Drug Design, Development and Therapy, 2025).

Target: NaV1.5 (Homo sapiens, UniProt Q14524)
Experiment: manual whole-cell patch clamp in CHL cells stably expressing SCN5A
Assay type: cell-based

Sequence of NaV1.5 (Q14524 whole entry): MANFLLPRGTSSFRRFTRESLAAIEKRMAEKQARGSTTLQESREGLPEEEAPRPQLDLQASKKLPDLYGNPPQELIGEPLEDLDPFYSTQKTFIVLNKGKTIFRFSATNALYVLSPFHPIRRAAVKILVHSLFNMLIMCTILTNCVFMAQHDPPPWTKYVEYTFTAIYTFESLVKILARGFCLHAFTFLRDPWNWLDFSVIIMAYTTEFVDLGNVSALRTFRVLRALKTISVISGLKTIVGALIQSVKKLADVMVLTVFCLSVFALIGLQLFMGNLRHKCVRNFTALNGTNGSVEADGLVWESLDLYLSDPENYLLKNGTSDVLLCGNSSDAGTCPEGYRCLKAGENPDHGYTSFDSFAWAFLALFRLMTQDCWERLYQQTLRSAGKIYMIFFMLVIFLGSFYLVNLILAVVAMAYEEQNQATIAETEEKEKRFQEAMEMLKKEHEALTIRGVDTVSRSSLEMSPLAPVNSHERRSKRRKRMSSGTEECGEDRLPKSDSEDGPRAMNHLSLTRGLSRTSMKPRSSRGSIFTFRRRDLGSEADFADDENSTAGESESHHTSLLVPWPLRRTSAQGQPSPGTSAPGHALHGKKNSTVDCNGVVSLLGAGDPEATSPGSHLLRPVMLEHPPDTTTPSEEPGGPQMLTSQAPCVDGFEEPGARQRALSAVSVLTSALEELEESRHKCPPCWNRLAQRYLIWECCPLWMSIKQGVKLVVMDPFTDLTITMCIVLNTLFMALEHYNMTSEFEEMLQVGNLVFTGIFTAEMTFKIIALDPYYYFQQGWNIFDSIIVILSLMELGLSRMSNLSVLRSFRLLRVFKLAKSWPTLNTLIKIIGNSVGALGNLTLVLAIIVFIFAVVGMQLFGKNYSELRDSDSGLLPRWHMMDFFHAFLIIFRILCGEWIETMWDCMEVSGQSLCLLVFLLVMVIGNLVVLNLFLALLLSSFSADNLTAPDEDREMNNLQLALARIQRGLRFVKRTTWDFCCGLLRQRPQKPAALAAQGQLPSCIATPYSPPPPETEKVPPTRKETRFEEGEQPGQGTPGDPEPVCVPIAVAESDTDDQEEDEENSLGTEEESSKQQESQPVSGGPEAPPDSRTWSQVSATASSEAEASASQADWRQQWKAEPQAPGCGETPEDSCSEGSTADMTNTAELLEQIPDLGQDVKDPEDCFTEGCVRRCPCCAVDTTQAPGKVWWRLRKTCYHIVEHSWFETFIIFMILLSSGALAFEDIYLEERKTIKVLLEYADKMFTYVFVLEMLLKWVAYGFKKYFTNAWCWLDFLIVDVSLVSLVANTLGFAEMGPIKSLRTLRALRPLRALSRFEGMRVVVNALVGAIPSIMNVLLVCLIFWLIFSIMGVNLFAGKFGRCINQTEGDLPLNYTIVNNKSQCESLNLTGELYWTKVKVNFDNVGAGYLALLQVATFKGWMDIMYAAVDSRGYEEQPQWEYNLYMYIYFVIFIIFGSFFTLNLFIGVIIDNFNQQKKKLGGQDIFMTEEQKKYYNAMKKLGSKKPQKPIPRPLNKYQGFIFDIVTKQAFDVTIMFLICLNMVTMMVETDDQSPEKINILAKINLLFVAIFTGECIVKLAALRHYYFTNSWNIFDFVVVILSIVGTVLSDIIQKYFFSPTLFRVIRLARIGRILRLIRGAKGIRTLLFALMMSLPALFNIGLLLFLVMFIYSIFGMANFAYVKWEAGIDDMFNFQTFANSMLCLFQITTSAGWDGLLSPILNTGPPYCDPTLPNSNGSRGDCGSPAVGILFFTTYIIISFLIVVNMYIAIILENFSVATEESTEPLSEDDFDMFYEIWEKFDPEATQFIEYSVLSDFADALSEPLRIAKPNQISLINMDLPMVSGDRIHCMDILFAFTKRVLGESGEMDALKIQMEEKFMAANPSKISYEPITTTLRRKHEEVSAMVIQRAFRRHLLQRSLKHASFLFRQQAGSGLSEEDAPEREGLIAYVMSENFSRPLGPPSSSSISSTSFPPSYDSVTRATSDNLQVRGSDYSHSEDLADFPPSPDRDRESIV

CCCCCCCCCCCC(=O)O [LA, lauric acid] gave an IC50 of 27.4 ± 12.8 µM.
